This is an account of results in patent publication US9738591B2, “Antimicrobial compounds” (priority 2009, dated 2017).

Several values for one entry are separate records, joined by “and”; a condition that tells them apart may be missing. Identical values can stand only once.

Data set [1] deals with Staphylococcus aureus NCTC 6571/ATCC 9144. As to the kind of experiment: Disk diffusion. As to conditions: for zones of inhibition with S aureus NCTC6571: applied at 10 mg/ml; for Zone of Inhibition: S. aureus NCTC 6571; for Zone of inhibition, S. aureus NCTC 6571: analogues in DMSO, protocol of Example 3.
Data set [2] concerns Moraxella catarrhalis NCTC 3625. Kind of data set: Disk diffusion. The following applies: M. catarrhalis NCTC 3625. (A growth-free zone around the sample is the usual read-out of agar diffusion tests.)
The subject of data set [3] is Bacillus subtilis ATCC 6633. As to the kind of experiment: Disk diffusion. The following applies: B. subtilis ATCC 6633.
In data set [4] the test system is Yersinia enterocolitica clinical 26609. Kind of data set: Disk diffusion. As to conditions: Y. enterocolitica clinical 26609.
Data set [5] concerns Pseudomonas aeruginosa NCTC 10662. Kind of data set: Disk diffusion. As to conditions: P. aeruginosa NCTC 10662.
Data set [6] concerns Staphylococcus xylosus ATCC 29971. Kind of data set: Disk diffusion. As to conditions: S. xylosus ATCC 29971.
For data set [7], the system named is Shigella flexneri NCTC 8192. Kind of data set: Disk diffusion. As to conditions: S. flexneri NCTC 8192. Type of data set: cell-based. The protocol: Plates were incubated at 35° C.
For data set [8], the system named is Bacillus cereus ATCC 13061. As to the kind of experiment: Disk diffusion. As to conditions: B. cereus ATCC 13061.
Data set [9] relates to Aeromonas hydrophila NCTC 8049/ATCC 7966. Kind of data set: Disk diffusion. As to conditions: A. hydrophila NCTC 8049.
In data set [10] the test system is Staphylococcus aureus (methicillin resistant) NCTC 10442. As to the kind of experiment: Disk diffusion. As to conditions: S. aureus NCTC 10442.
The next data set concerns C. albicans ATCC 90028. Kind of data set: Disk diffusion.
Data set [11] deals with Listeria monocytogenes NCTC 7973. As to the kind of experiment: Disk diffusion. The following applies: L. monocytogenes NCTC 7973.
Data set [12] concerns V. cholerae non-01 clinical. As to the kind of experiment: Disk diffusion.
For data set [13], the system named is Streptococcus pneumoniae ATCC 49619. As to the kind of experiment: Disk diffusion. As to conditions: S. pneumoniae ATCC 49619.
Data set [14] concerns Salmonella enterica subsp. enterica serovar Typhimurium ATCC 13311. As to the kind of experiment: Disk diffusion. The following applies: S. typhimurium ATCC 13311.
Data set [15] has as its system Enterococcus faecalis NCTC 775. Kind of data set: Disk diffusion. The following applies: E. faecalis NCTC 775.
The subject of data set [16] is Micrococcus luteus ATCC 10240. Kind of data set: Disk diffusion. The following applies: M. luteus ATCC 10240.
In data set [17] the test system is Escherichia coli NCTC 10538. As to the kind of experiment: Disk diffusion. As to conditions: E. coli NCTC 10538.
Data set [18] has as its system Streptococcus pyogenes NCTC 8191. Kind of data set: Disk diffusion. As to conditions: S. pyogenes NCTC 8191.
The next data set has as its system E. coli NCTC 10418. As to the kind of experiment: Disk diffusion. As to conditions: for Zone of Inhibition: E. coli NCTC 10418; for Zone of inhibition, E. coli NCTC 10418: analogues in DMSO, protocol of Example 3.
For data set [19], the system named is Stenotrophomonas maltophilia ATCC 13637. Kind of data set: Disk diffusion. The following applies: S. maltophilia ATCC 13637.
Data set [20] relates to A. calcoaceticus ATCC 15308. As to the kind of experiment: Disk diffusion.
The next data set deals with K. pneumoniae NCTC 10896. Kind of data set: Disk diffusion.
Data set [21] deals with Citrobacter freundii NCTC 9750/ATCC 8090. As to the kind of experiment: Disk diffusion. The following applies: C. freundii NCTC 9750.
For data set [22], the system named is Staphylococcus epidermidis ATCC 12228. Kind of data set: Disk diffusion. As to conditions: S. epidermidis ATCC 1228.
In data set [23] the test system is Proteus mirabilis NCTC 10975. Kind of data set: Disk diffusion. The following applies: P. mirabilis NCTC 10975.
The test system of data set [24] is S. typhimurium TA98, TA100 and TA1535. Kind of data set: Ames Test for mutagenic activity, no metabolic activation. The following applies: 5 μg/plate, duplicate plates.

For the compound `O=C(O)c1ccc(/C=C/c2ccc(/C=C/c3ccc(C(=O)O)cc3)cc2)cc1` [DSB001], in [1], the “zones of inhibition with S aureus NCTC6571” value (shortened to “zones of inhibition”) is “no zones of inhibition”.
`O=C(O)c1ccc(CCc2cccc(CCc3ccc(C(=O)O)cc3)c2)cc1` [DSB004]: the “zones of inhibition” value in data set [1] was “no zones of inhibition”.
`O=C(O)c1ccc(CCc2ccc(CCc3ccc(C(=O)O)cc3)cc2)cc1` [DSD002]: the “zones of inhibition” value in data set [1] is given as “no zones of inhibition”.
Take `O=C(O)c1ccc(/C=C/c2cc(/C=C/c3ccc(C(=O)O)cc3)c(/C=C/c3ccc(C(=O)O)cc3)cc2/C=C/c2ccc(C(=O)O)cc2)cc1` [QSB001]: the “Zone of Inhibition” value in data set [2] is 18 mm; in data set [3], 0 mm; in data set [4], 7.5 mm; in data set [5], 0 mm; in data set [6] it was 0 mm; in [7] it was 0 mm. Moreover, the “Zone of Inhibition” value is 0 mm in [8]; 7 mm in data set [9]; 0 mm in data set [10]; 0 mm in the data set on C. albicans ATCC 90028; 0 mm in data set [11]; 8 mm in data set [12]. The “Zone of Inhibition” value was determined as 9 mm in [13]; 8.5 mm in data set [14]; 0 mm in data set [15]; 0 mm in data set [16]; 7.5 mm in data set [17]; 8.5 mm in [1]. The “Zone of Inhibition” value in data set [18] was 8 mm; in the data set with E. coli NCTC 10418, 7 mm; in [19] it was 8 mm; in [20] it was 0 mm; in the data set on K. pneumoniae NCTC 10896 it was 8 mm; in data set [21] it was 8.5 mm. The “Zone of Inhibition” value in [22] and in data set [23] was 0 mm in each case.
On to `O=C(O)c1ccc(CCc2cc(CCc3ccc(C(=O)O)cc3)c(CCc3ccc(C(=O)O)cc3)cc2CCc2ccc(C(=O)O)cc2)cc1` [QSB002], for which the “zones of inhibition” value in data set [1] is recorded as “no zones of inhibition”.
As for `O=C(O)/C=C/c1cc(/C=C/C(=O)O)cc(/C=C/C(=O)O)c1` [TAB001], the “Zone of inhibition, S. aureus NCTC 6571” value in data set [1] worked out at 0 mm.
With `O=C(O)/C=C/c1ccc(-c2cc(-c3ccc(/C=C/C(=O)O)cc3)cc(-c3ccc(/C=C/C(=O)O)cc3)c2)cc1` [TCB001], the “Zone of inhibition, S. aureus NCTC 6571” value in [1] was 11 mm.
For the compound `CCCCOC(=O)/C=C/c1ccc(-c2cc(-c3ccc(/C=C/C(=O)OCCCC)cc3)cc(-c3ccc(/C=C/C(=O)OCCCC)cc3)c2)cc1` [TCB003], the “Zone of inhibition, S. aureus NCTC 6571” value in data set [1] was 0 mm.
Take `CCCCOC(=O)/C=C/c1ccc(-c2nc(-c3ccc(/C=C/C(=O)OCCCC)cc3)nc(-c3ccc(/C=C/C(=O)OCCCC)cc3)n2)cc1` [TCT003]: the “Zone of inhibition, S. aureus NCTC 6571” value in data set [1] turned out to be 0 mm. Moreover, in the data set with E. coli NCTC 10418, the “Zone of inhibition, E. coli NCTC 10418” value was found to be 0 mm.
For the compound `CN(C)c1ccc(/C=C/c2cc(/C=C/c3ccc(N(C)C)cc3)cc(/C=C/c3ccc(N(C)C)cc3)c2)cc1` [TSB009], the “Zone of inhibition, S. aureus NCTC 6571” value in [1] is recorded as 0 mm.
For `COc1ccc(/C=C/c2cc(/C=C/c3ccc(OC)cc3)cc(/C=C/c3ccc(OC)cc3)c2)cc1` [TSB019], the “Zone of inhibition, S. aureus NCTC 6571” value in data set [1] was 0 mm. Besides, the “Zone of inhibition, E. coli NCTC 10418” value in the data set on E. coli NCTC 10418 is listed as 0 mm.
As for `CC(=O)Oc1ccc(/C=C/c2cc(/C=C/c3ccc(OC(C)=O)cc3)cc(/C=C/c3ccc(OC(C)=O)cc3)c2)cc1` [TSB023], the “Zone of inhibition, S. aureus NCTC 6571” value in data set [1] is listed as 0 mm. Moreover, in the data set with E. coli NCTC 10418, the “Zone of inhibition, E. coli NCTC 10418” value is recorded as 0 mm.
In the case of `CC(=O)c1ccc(/C=C/c2cc(/C=C/c3ccc(C(C)=O)cc3)cc(/C=C/c3ccc(C(C)=O)cc3)c2)cc1` [TSB025], the “Zone of inhibition, S. aureus NCTC 6571” value in [1] is 0 mm. Moreover, the “Zone of inhibition, E. coli NCTC 10418” value with E. coli NCTC 10418 came to 0 mm.
As for `Cc1ccc(/C=C/c2cc(/C=C/c3ccc(C)cc3)cc(/C=C/c3ccc(C)cc3)c2)cc1` [TSB037], the “Zone of inhibition, S. aureus NCTC 6571” value in [1] came out at 0 mm. Also, in the data set with E. coli NCTC 10418, the “Zone of inhibition, E. coli NCTC 10418” value is recorded as 0 mm.
Take `CC(C)Oc1ccc(/C=C/c2cc(/C=C/c3ccc(OC(C)C)c(OC(C)C)c3)cc(/C=C/c3ccc(OC(C)C)c(OC(C)C)c3)c2)cc1OC(C)C` [TSB041]: the “Zone of inhibition, S. aureus NCTC 6571” value in data set [1] is on record as 0 mm. Also, the “Zone of inhibition, E. coli NCTC 10418” value in the data set on E. coli NCTC 10418 is reported as 0 mm.
Turning to `COc1cc(/C=C/c2cc(/C=C/c3cc(OC)c(OC)c(OC)c3)cc(/C=C/c3cc(OC)c(OC)c(OC)c3)c2)cc(OC)c1OC` [TSB049], the “Zone of inhibition, S. aureus NCTC 6571” value in data set [1] is 0 mm. The “Zone of inhibition, E. coli NCTC 10418” value in the data set on E. coli NCTC 10418 came out at 0 mm.
With `C(=C\c1cc(/C=C/c2ccncc2)cc(/C=C/c2ccncc2)c1)/c1ccncc1` [TSB053], in data set [1], the “Zone of inhibition, S. aureus NCTC 6571” value stood at 0 mm.
With `N#Cc1ccc(/C=C/c2cc(/C=C/c3ccc(C#N)cc3)cc(/C=C/c3ccc(C#N)cc3)c2)cc1` [TSB063], the “Zone of inhibition, S. aureus NCTC 6571” value in [1] is 0 mm. Moreover, the “Zone of inhibition, E. coli NCTC 10418” value in the data set with E. coli NCTC 10418 is given as 0 mm.
Regarding `C(=C\c1cc(/C=C/c2ccc(-c3nnn[nH]3)cc2)cc(/C=C/c2ccc(-c3nnn[nH]3)cc2)c1)/c1ccc(-c2nnn[nH]2)cc1` [TSB065], the “Zone of inhibition, S. aureus NCTC 6571” value in data set [1] is listed as 14 mm. In addition, in the data set on E. coli NCTC 10418, the “Zone of inhibition, E. coli NCTC 10418” value is 0 mm.
`O=C(O)c1ccc(/C=C/c2ccc(/C=C/c3ccc(C(=O)O)cc3)c(/C=C/c3ccc(C(=O)O)cc3)c2)cc1` [TSB067]: the “Zone of Inhibition” value was 32 mm in data set [2]; 0 mm in data set [3]; 0 mm in data set [4]; 0 mm in [5]; 0 mm in [6]; 0 mm in data set [7]. Further, the “Zone of Inhibition” value amounted to 0 mm in data set [8]; 7 mm in [9]; 12 mm in data set [10]; 0 mm in the data set with C. albicans ATCC 90028; 12 mm in [11]; 0 mm in data set [12]. The “Zone of Inhibition” value stood at 16 mm in [13]; 0 mm in [14]; 0 mm in data set [15]; 20 mm in [16]; 7.5 mm in [17]; 14 mm in data set [1]. Moreover, the “Zone of Inhibition” value in [18] is reported as 14 mm; in the data set on E. coli NCTC 10418 it was 6.5 mm; in [19], 0 mm; in [20] it was 0 mm; with K. pneumoniae NCTC 10896 it was 0 mm; in data set [21], 0 mm. The entries for the “Zone of Inhibition” value in [22] and in [23] were 11 mm and 0 mm, respectively.
As for `[N-]=[N+]=[N-]` [sodium azide, reference compound], the “Number of colonies, Positive Control” value in data set [24] (TA100, negative control 113, 96) is 350 and 360; in data set [24] (TA1535, negative control 28, 29), 600.
